# Assay results taken from the supplement of paper PMC10307832.
# Experiments:
# Experiment in all cases: relative viability (nuclei count vs DMSO), 5 days (fraction); higher = more cells survive
# SK-MES-1 = system: SK-MES-1
# Outline: (§1)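 Nuclei were stained with Hoechst during a one-step fixation (final 0.05% Triton X-100, 1% formaldehyde, 1 ug/ml Hoechst) carried out 5 days after dosing, then counted on 4× images. The cells, lung cancer lines in 1536-well plates, had been dosed by pin tool the day after seeding with one drug alone or a fixed anchor-drug dose plus five library-drug doses (not always all listed) in √10 steps. Relative viability is the nuclei count in treated wells divided by that in vehicle wells, and each value is the median of duplicate plates.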
# LU99A = system: LU99A
# Outline: as §1
# NCI-H2087 = system: NCI-H2087
# Outline: as §1
# LK-2 = system: LK-2
# Outline: as §1
# ChaGo-K-1 = system: ChaGo-K-1
# Outline: as §1
# NCI-H1944 = system: NCI-H1944
# Outline: as §1
# NCI-H650 = system: NCI-H650
# Outline: as §1
# NCI-H661 = system: NCI-H661
# Outline: as §1
# HCC-78 = system: HCC-78
# Outline: as §1
# LC-2-ad = system: LC-2-ad
# Outline: as §1
# NCI-H838 = system: NCI-H838
# Outline: as §1
# NCI-H358 = system: NCI-H358
# Outline: as §1
# PC-3 [JPC-3] = system: PC-3 [JPC-3]
# Outline: as §1
# NCI-H1651 = system: NCI-H1651
# Outline: as §1
# LCLC-97TM1 = system: LCLC-97TM1
# Outline: as §1
# NCI-H1975 = system: NCI-H1975
# Outline: as §1
# NCI-H1355 = system: NCI-H1355
# Outline: as §1
# NCI-H2342 = system: NCI-H2342
# Outline: as §1
# LXF-289 = system: LXF-289
# Outline: as §1
# BEN = system: BEN
# Outline: as §1
# NCI-H1666 = system: NCI-H1666
# Outline: as §1
smiles,measurement,setting,value
COc1cc2nccc(Oc3ccc(NC(=O)Nc4cc(C)on4)c(Cl)c3)c2cc1OC [Tivozanib] + CC(=O)c1c(C)c2cnc(Nc3ccc(N4CCNCC4)cn3)nc2n(C2CCCC2)c1=O [Palbociclib] (partner 0.5 µM),relative viability,SK-MES-1; first compound 0.005 µM,0.306
same,relative viability,SK-MES-1; first compound 0.01581 µM,0.345
same,relative viability,SK-MES-1; first compound 0.05 µM,0.365
same,relative viability,SK-MES-1; first compound 0.1581 µM,0.326
same,relative viability,SK-MES-1; first compound 0.5 µM,0.376
same,relative viability,LU99A; first compound 0.005 µM,0.431
same,relative viability,LU99A; first compound 0.01581 µM,0.412
same,relative viability,LU99A; first compound 0.05 µM,0.429
same,relative viability,LU99A; first compound 0.1581 µM,0.306
same,relative viability,LU99A; first compound 0.5 µM,0.408
same,relative viability,NCI-H2087; first compound 0.005 µM,0.271
same,relative viability,NCI-H2087; first compound 0.01581 µM,0.288
same,relative viability,NCI-H2087; first compound 0.05 µM,0.259
same,relative viability,NCI-H2087; first compound 0.1581 µM,0.231
same,relative viability,NCI-H2087; first compound 0.5 µM,0.231
same,relative viability,LK-2; first compound 0.005 µM,0.664
same,relative viability,LK-2; first compound 0.01581 µM,0.674
same,relative viability,LK-2; first compound 0.05 µM,0.503
same,relative viability,LK-2; first compound 0.1581 µM,0.875
same,relative viability,LK-2; first compound 0.5 µM,0.742
same,relative viability,ChaGo-K-1; first compound 0.005 µM,0.879
same,relative viability,ChaGo-K-1; first compound 0.01581 µM,0.916
same,relative viability,ChaGo-K-1; first compound 0.05 µM,0.898
same,relative viability,ChaGo-K-1; first compound 0.1581 µM,0.947
same,relative viability,ChaGo-K-1; first compound 0.5 µM,0.886
same,relative viability,NCI-H1944; first compound 0.005 µM,0.303
same,relative viability,NCI-H1944; first compound 0.01581 µM,0.365
same,relative viability,NCI-H1944; first compound 0.05 µM,0.344
same,relative viability,NCI-H1944; first compound 0.1581 µM,0.296
same,relative viability,NCI-H1944; first compound 0.5 µM,0.324
same,relative viability,NCI-H650; first compound 0.005 µM,0.297
same,relative viability,NCI-H650; first compound 0.01581 µM,0.391
same,relative viability,NCI-H650; first compound 0.05 µM,0.338
same,relative viability,NCI-H650; first compound 0.1581 µM,0.377
same,relative viability,NCI-H650; first compound 0.5 µM,0.27
same,relative viability,NCI-H661; first compound 0.005 µM,0.401
same,relative viability,NCI-H661; first compound 0.01581 µM,0.387
same,relative viability,NCI-H661; first compound 0.05 µM,0.422
same,relative viability,NCI-H661; first compound 0.1581 µM,0.409
same,relative viability,NCI-H661; first compound 0.5 µM,0.387
same,relative viability,HCC-78; first compound 0.005 µM,0.514
same,relative viability,HCC-78; first compound 0.01581 µM,0.438
same,relative viability,HCC-78; first compound 0.05 µM,0.474
same,relative viability,HCC-78; first compound 0.1581 µM,0.416
same,relative viability,HCC-78; first compound 0.5 µM,0.463
same,relative viability,LC-2-ad; first compound 0.005 µM,0.471
same,relative viability,LC-2-ad; first compound 0.01581 µM,0.47
same,relative viability,LC-2-ad; first compound 0.05 µM,0.478
same,relative viability,LC-2-ad; first compound 0.1581 µM,0.369
same,relative viability,LC-2-ad; first compound 0.5 µM,0.297
same,relative viability,NCI-H838; first compound 0.005 µM,0.227
same,relative viability,NCI-H838; first compound 0.01581 µM,0.227
same,relative viability,NCI-H838; first compound 0.05 µM,0.211
same,relative viability,NCI-H838; first compound 0.1581 µM,0.2
same,relative viability,NCI-H838; first compound 0.5 µM,0.229
same,relative viability,NCI-H358; first compound 0.005 µM,0.123
same,relative viability,NCI-H358; first compound 0.01581 µM,0.165
same,relative viability,NCI-H358; first compound 0.05 µM,0.122
same,relative viability,NCI-H358; first compound 0.1581 µM,0.133
same,relative viability,NCI-H358; first compound 0.5 µM,0.157
same,relative viability,PC-3 [JPC-3]; first compound 0.01581 µM,0.55
same,relative viability,PC-3 [JPC-3]; first compound 0.05 µM,0.554
same,relative viability,PC-3 [JPC-3]; first compound 0.1581 µM,0.609
same,relative viability,PC-3 [JPC-3]; first compound 0.5 µM,0.55
same,relative viability,NCI-H1651; first compound 0.005 µM,0.524
same,relative viability,NCI-H1651; first compound 0.01581 µM,0.516
same,relative viability,NCI-H1651; first compound 0.05 µM,0.522
same,relative viability,NCI-H1651; first compound 0.1581 µM,0.547
same,relative viability,NCI-H1651; first compound 0.5 µM,0.543
same,relative viability,LCLC-97TM1; first compound 0.005 µM,0.233
same,relative viability,LCLC-97TM1; first compound 0.01581 µM,0.245
same,relative viability,LCLC-97TM1; first compound 0.05 µM,0.193
same,relative viability,LCLC-97TM1; first compound 0.1581 µM,0.268
same,relative viability,LCLC-97TM1; first compound 0.5 µM,0.214
same,relative viability,NCI-H1975; first compound 0.005 µM,0.585
same,relative viability,NCI-H1975; first compound 0.01581 µM,0.609
same,relative viability,NCI-H1975; first compound 0.05 µM,0.648
same,relative viability,NCI-H1975; first compound 0.1581 µM,0.341
same,relative viability,NCI-H1975; first compound 0.5 µM,0.509
same,relative viability,NCI-H1355; first compound 0.005 µM,0.401
same,relative viability,NCI-H1355; first compound 0.01581 µM,0.447
same,relative viability,NCI-H1355; first compound 0.05 µM,0.445
same,relative viability,NCI-H1355; first compound 0.1581 µM,0.326
same,relative viability,NCI-H1355; first compound 0.5 µM,0.417
same,relative viability,NCI-H2342; first compound 0.005 µM,0.495
same,relative viability,NCI-H2342; first compound 0.01581 µM,0.524
same,relative viability,NCI-H2342; first compound 0.05 µM,0.536
same,relative viability,NCI-H2342; first compound 0.5 µM,0.469
same,relative viability,LXF-289; first compound 0.005 µM,0.575
same,relative viability,LXF-289; first compound 0.01581 µM,0.576
same,relative viability,LXF-289; first compound 0.05 µM,0.6
same,relative viability,LXF-289; first compound 0.1581 µM,0.66
same,relative viability,LXF-289; first compound 0.5 µM,0.612
same,relative viability,BEN; first compound 0.005 µM,0.508
same,relative viability,BEN; first compound 0.01581 µM,0.497
same,relative viability,BEN; first compound 0.05 µM,0.453
same,relative viability,BEN; first compound 0.1581 µM,0.44
same,relative viability,BEN; first compound 0.5 µM,0.459
same,relative viability,NCI-H1666; first compound 0.005 µM,0.628
same,relative viability,NCI-H1666; first compound 0.01581 µM,0.666
same,relative viability,NCI-H1666; first compound 0.05 µM,0.639
same,relative viability,NCI-H1666; first compound 0.1581 µM,0.668
same,relative viability,NCI-H1666; first compound 0.5 µM,0.642
